Laboratory results reported in patent publication US20240352075A1, “PACAP1-23 ANALOG GLYCOPEPTIDES AND METHODS FOR PRODUCING AND USING THE SAME” (priority 2021, published 2024).
Where “and” joins values, the source holds several entries; their conditions need not be identical. Equal entries are not always repeated. Where a SMILES comes first, the peptide text is derived from it. [ ]: non-standard residue; d: D form. The star is where a group is joined. ξ: configuration not given here. X2 = OCC1OC(OC2C(CO)OC(*)C(O)C2O)C(O)C(O)C1O; X1 = OCC1OC(*)C(O)C(O)C1O; Nva = CCC[C@H](N)C(=O)O; ξS = NC(CO)C(=O)O

Experiments:
Type in all cases: cell-based
Details in all cases: for Emax: CHO
[1] = molecular target: T1, PAC1 (Homo sapiens, UniProt P41586); assay: cAMP accumulation assay in CHO cells stably expressing PAC1
T1 construct: 3xHA (N)
T1 sequence (P41586 21-468): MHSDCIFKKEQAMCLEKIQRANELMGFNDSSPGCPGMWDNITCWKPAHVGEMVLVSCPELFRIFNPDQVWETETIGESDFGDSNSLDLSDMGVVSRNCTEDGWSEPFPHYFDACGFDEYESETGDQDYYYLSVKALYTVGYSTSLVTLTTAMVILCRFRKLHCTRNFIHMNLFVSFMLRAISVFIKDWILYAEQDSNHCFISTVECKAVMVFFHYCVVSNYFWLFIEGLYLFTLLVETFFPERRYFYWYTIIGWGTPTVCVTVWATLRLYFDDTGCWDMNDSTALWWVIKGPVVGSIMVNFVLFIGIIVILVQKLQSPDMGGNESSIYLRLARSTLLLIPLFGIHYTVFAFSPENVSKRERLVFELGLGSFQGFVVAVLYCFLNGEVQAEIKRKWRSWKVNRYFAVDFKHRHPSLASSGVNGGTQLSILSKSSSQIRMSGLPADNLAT

[2] = molecular target: T2, VPAC1 (Homo sapiens, UniProt P32241); assay: cAMP accumulation assay in CHO cells stably expressing VPAC1
T2 construct: 3xHA (N)
T2 sequence (P32241 31-457): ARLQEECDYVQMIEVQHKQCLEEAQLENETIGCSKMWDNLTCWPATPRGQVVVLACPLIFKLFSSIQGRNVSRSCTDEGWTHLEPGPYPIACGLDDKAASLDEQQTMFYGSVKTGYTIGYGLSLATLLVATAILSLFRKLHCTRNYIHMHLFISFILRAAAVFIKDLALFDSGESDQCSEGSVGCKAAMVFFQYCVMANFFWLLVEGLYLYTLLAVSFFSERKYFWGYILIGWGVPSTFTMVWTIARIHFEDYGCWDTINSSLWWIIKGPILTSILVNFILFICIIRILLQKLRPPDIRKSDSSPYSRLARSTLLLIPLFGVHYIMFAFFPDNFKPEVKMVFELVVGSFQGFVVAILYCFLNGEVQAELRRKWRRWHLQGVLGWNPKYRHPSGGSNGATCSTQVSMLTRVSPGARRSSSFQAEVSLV

[3] = molecular target: T3, VPAC2 (Homo sapiens, UniProt P41587); assay: cAMP accumulation assay in CHO cells stably expressing VPAC2
T3 construct: 3xHA (N)
T3 sequence (P41587 24-438): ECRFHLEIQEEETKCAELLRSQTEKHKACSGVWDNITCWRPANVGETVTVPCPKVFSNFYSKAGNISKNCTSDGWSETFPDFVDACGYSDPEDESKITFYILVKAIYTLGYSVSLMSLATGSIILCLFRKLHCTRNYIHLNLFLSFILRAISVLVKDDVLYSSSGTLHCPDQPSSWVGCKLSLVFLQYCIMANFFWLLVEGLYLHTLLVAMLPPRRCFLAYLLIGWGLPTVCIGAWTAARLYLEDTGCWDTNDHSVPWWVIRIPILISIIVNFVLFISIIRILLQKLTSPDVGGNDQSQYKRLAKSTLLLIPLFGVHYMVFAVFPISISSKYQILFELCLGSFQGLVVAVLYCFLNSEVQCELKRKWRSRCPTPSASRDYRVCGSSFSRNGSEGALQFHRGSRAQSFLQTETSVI

[4] = Table 3, in vitro cAMP stimulation, NC = No Convergence (no activity)

Row | Structure (SMILES) | Emax [1] [%] | EC50 ([1]; Table 3, in vitro cAMP stimulation) [nM] | Emax [2] | EC50 ([2]; Table 1, cAMP stimulation, CHO cells) [nM] | Emax [3] [%] | Emax [3, 4] [%] | EC50 ([3]; Table 1, cAMP stimulation, CHO cells, NC not defined here (Table 3: No Convergence)) [nM] | EC50 [3, 4] [nM]
1 | CCC[C@H](NC(=O)[C@H](CCC(N)=O)NC(=O)[C@H](CCCCN)NC(=O)[C@H](CCCNC(=N)N)NC(=O)[C@H](Cc1ccc(O)cc1)NC(=O)[C@H](CCCNC(=N)N)NC(=O)[C@H](CO)NC(=O)[C@H](Cc1ccc(O)cc1)NC(=O)[C@H](CO)NC(=O)[C@H](CC(=O)O)NC(=O)[C@@H](NC(=O)[C@H](Cc1ccccc1)NC(=O)[C@@H](NC(=O)CNC(=O)[C@H](CC(=O)O)NC(=O)[C@H](CO)NC(=O)[C@@H](N)Cc1c[nH]cn1)[C@@H](C)CC)[C@@H](C)O)C(=O)N[C@@H](C)C(=O)N[C@H](C(=O)N[C@@H](CCCCN)C(=O)N[C@@H](CCCCN)C(=O)N[C@@H](Cc1ccc(O)cc1)C(=O)N[C@@H](CC(C)C)C(=O)NC(COC1OC(CO)C(O)C(O)C1O)C(=O)NC(COC1OC(CO)C(O)C(O)C1O)C(N)=O)C(C)C (stereo partly shown) [CRA-DV-3024] (H-HSDGIFTDSYSRYRKQ[Nva]AVKKYL[ξS](X1)[ξS](X1)-NH2) | 152 | – | 127% | – | – | 130 | – | –
2 | CCC[C@H](NC(=O)[C@H](CCC(N)=O)NC(=O)[C@H](CCCCN)NC(=O)[C@H](CCCNC(=N)N)NC(=O)[C@H](Cc1ccc(O)cc1)NC(=O)[C@H](CCCNC(=N)N)NC(=O)[C@H](CO)NC(=O)[C@H](Cc1ccc(O)cc1)NC(=O)[C@H](CO)NC(=O)[C@H](CC(=O)O)NC(=O)[C@@H](NC(=O)[C@H](Cc1ccccc1)NC(=O)[C@@H](NC(=O)[C@H](C)NC(=O)[C@H](CC(=O)O)NC(=O)[C@H](CO)NC(=O)[C@@H](N)Cc1c[nH]cn1)[C@@H](C)CC)[C@@H](C)O)C(=O)N[C@@H](C)C(=O)N[C@H](C(=O)N[C@@H](CCCCN)C(=O)N[C@@H](CCCCN)C(=O)N[C@@H](Cc1ccc(O)cc1)C(=O)N[C@@H](CC(C)C)C(=O)NC(COC1OC(CO)C(OC2OC(CO)C(O)C(O)C2O)C(O)C1O)C(N)=O)C(C)C (stereo partly shown) [CRA-TG-3026] (H-HSDAIFTDSYSRYRKQ[Nva]AVKKYL[ξS](X2)-NH2) | 181 | – | 95% | – | 190 | 115 | – | –

Now from value to compound:

Row | Emax [1] [%] | EC50 ([1]; Table 3, in vitro cAMP stimulation) [nM] | Emax [2] | EC50 ([2]; Table 1, cAMP stimulation, CHO cells) [nM] | Emax [3] [%] | Emax [3, 4] [%] | EC50 ([3]; Table 1, cAMP stimulation, CHO cells, NC not defined here (Table 3: No Convergence)) [nM] | EC50 [3, 4] [nM] | Structure (SMILES)
3 | 198 | 2.2 | 42% and 94% | 5.2 | 111 | 91 | 571 | 571 | CCC[C@H](NC(=O)[C@H](CCC(N)=O)NC(=O)[C@H](CCCCN)NC(=O)[C@H](CCCNC(=N)N)NC(=O)[C@H](Cc1ccc(O)cc1)NC(=O)[C@H](CCCNC(=N)N)NC(=O)[C@H](CO)NC(=O)[C@H](Cc1ccc(O)cc1)NC(=O)[C@H](CO)NC(=O)[C@H](CC(=O)O)NC(=O)[C@@H](NC(=O)[C@H](Cc1ccccc1)NC(=O)[C@@H](NC(=O)CNC(=O)[C@H](CC(=O)O)NC(=O)[C@H](CO)NC(=O)[C@@H](N)Cc1c[nH]cn1)[C@@H](C)CC)[C@@H](C)O)C(=O)N[C@@H](C)C(=O)N[C@H](C(=O)N[C@@H](CCCCN)C(=O)N[C@@H](CCCCN)C(=O)N[C@@H](Cc1ccc(O)cc1)C(=O)N[C@@H](CC(C)C)C(=O)N[C@@H](CO)C(N)=O)C(C)C [CRA-DV-3022] (H-HSDGIFTDSYSRYRKQ[Nva]AVKKYLS-NH2)
4 | 181 | – | 105% | – | – | 90 | – | – | CCC[C@H](NC(=O)[C@H](CCC(N)=O)NC(=O)[C@H](CCCCN)NC(=O)[C@H](CCCNC(=N)N)NC(=O)[C@H](Cc1ccc(O)cc1)NC(=O)[C@H](CCCNC(=N)N)NC(=O)[C@H](CO)NC(=O)[C@H](Cc1ccc(O)cc1)NC(=O)[C@H](CO)NC(=O)[C@H](CC(=O)O)NC(=O)[C@@H](NC(=O)[C@H](Cc1ccccc1)NC(=O)[C@@H](NC(=O)CNC(=O)[C@H](CC(=O)O)NC(=O)[C@H](CO)NC(=O)[C@@H](N)Cc1c[nH]cn1)[C@@H](C)CC)[C@@H](C)O)C(=O)N[C@@H](C)C(=O)N[C@H](C(=O)N[C@@H](CCCCN)C(=O)N[C@@H](CCCCN)C(=O)N[C@@H](Cc1ccc(O)cc1)C(=O)N[C@@H](CC(C)C)C(=O)NC(COC1OC(CO)C(O)C(O)C1O)C(N)=O)C(C)C (stereo partly shown) [CRA-DV-3023] (H-HSDGIFTDSYSRYRKQ[Nva]AVKKYL[ξS](X1)-NH2)
5 | 174 | – | 91% | – | 168 | 118 | – | – | CCC[C@H](NC(=O)[C@H](CCC(N)=O)NC(=O)[C@H](CCCCN)NC(=O)[C@H](CCCNC(=N)N)NC(=O)[C@H](Cc1ccc(O)cc1)NC(=O)[C@H](CCCNC(=N)N)NC(=O)[C@H](CO)NC(=O)[C@H](Cc1ccc(O)cc1)NC(=O)[C@H](CO)NC(=O)[C@H](CC(=O)O)NC(=O)[C@@H](NC(=O)[C@H](Cc1ccccc1)NC(=O)[C@@H](NC(=O)CNC(=O)[C@H](CC(=O)O)NC(=O)[C@H](CO)NC(=O)[C@@H](N)Cc1c[nH]cn1)[C@@H](C)CC)[C@@H](C)O)C(=O)N[C@@H](C)C(=O)N[C@H](C(=O)N[C@@H](CCCCN)C(=O)N[C@@H](CCCCN)C(=O)N[C@@H](Cc1ccc(O)cc1)C(=O)N[C@@H](CC(C)C)C(=O)NC(COC1OC(CO)C(OC2OC(CO)C(O)C(O)C2O)C(O)C1O)C(N)=O)C(C)C (stereo partly shown) [CRA-TG-3025] (H-HSDGIFTDSYSRYRKQ[Nva]AVKKYL[ξS](X2)-NH2)
